Columns and labels:
[1] = molecular target: T1, Gastrin/cholecystokinin type B receptor (Homo sapiens, UniProt P32239)
T1 sequence (P32239 whole entry): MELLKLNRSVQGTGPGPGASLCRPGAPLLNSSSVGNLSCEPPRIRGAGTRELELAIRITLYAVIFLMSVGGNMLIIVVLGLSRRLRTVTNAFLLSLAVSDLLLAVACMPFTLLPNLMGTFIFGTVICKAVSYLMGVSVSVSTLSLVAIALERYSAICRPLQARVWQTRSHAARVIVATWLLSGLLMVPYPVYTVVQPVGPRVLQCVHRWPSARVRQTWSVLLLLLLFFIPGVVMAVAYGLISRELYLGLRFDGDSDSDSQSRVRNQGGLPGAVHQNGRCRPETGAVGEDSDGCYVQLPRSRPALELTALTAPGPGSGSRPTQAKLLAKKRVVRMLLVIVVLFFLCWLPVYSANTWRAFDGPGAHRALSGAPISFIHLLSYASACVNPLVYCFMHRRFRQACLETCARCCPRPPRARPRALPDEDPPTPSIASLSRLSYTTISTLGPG

[2] = molecular target: Growth hormone secretagogue receptor type 1 (Homo sapiens, UniProt Q92847)
Sequence of Growth hormone secretagogue receptor type 1 (Q92847 whole entry): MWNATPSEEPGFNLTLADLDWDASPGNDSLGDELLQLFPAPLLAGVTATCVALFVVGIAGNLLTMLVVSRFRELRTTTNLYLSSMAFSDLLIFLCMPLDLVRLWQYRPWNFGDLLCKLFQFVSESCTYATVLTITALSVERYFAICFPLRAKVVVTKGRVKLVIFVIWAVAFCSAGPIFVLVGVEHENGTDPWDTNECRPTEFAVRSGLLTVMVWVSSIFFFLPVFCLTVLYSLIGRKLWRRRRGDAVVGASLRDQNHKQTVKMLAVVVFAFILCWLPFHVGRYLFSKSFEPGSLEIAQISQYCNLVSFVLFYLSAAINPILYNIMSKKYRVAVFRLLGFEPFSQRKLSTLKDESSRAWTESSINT

[3] = molecular target: 5-hydroxytryptamine receptor 2B (Homo sapiens, UniProt P41595); format: functional, cell-based
Sequence of 5-hydroxytryptamine receptor 2B (P41595 whole entry): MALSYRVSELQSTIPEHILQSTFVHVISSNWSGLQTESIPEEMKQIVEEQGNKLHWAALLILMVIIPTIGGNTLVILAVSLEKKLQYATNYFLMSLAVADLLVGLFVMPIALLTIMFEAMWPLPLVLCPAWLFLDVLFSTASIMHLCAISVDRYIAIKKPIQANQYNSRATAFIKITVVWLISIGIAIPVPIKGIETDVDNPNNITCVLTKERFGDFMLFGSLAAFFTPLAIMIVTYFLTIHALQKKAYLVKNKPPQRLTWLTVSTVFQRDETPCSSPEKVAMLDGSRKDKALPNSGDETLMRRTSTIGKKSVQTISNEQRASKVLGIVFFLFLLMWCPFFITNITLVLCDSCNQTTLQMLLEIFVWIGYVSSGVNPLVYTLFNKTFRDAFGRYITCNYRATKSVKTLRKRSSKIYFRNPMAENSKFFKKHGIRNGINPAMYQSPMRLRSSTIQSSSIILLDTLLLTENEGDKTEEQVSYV

[4] = molecular target: T2, Neuropeptide Y receptor type 1 (Homo sapiens, UniProt P25929)
T2 sequence (P25929 whole entry): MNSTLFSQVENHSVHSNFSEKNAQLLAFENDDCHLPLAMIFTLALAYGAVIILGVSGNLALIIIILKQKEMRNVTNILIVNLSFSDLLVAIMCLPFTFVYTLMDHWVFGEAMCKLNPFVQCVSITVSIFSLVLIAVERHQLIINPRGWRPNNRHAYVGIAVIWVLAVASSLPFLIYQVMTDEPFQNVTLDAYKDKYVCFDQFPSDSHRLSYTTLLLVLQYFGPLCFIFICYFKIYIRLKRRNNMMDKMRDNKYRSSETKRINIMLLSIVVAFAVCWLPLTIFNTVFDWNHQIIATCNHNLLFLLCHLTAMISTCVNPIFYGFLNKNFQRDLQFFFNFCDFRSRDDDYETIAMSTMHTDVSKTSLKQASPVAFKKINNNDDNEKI

[5] = molecular target: T3, Prostaglandin G/H synthase 1 (Rattus norvegicus, UniProt Q63921); format: functional
T3 sequence (Q63921 whole entry): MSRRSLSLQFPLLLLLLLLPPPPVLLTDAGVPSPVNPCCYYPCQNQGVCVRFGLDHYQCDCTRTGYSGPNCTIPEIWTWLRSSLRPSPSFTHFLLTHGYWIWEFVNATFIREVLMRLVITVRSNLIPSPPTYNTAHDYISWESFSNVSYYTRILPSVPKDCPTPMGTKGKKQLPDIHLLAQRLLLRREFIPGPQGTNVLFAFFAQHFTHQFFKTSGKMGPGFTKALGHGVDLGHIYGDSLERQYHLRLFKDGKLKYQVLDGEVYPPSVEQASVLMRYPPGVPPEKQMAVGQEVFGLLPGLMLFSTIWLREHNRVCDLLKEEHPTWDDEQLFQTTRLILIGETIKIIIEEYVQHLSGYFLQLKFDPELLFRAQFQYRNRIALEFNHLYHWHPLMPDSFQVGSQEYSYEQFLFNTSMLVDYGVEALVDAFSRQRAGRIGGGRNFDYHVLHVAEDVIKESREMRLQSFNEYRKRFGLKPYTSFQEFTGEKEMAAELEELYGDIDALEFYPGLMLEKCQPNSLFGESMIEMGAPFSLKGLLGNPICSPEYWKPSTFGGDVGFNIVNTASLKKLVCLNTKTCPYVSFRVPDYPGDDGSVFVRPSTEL

[6] = molecular target: T4, Amine oxidase [flavin-containing] A (Homo sapiens, UniProt P21397); format: functional
T4 sequence (P21397 whole entry): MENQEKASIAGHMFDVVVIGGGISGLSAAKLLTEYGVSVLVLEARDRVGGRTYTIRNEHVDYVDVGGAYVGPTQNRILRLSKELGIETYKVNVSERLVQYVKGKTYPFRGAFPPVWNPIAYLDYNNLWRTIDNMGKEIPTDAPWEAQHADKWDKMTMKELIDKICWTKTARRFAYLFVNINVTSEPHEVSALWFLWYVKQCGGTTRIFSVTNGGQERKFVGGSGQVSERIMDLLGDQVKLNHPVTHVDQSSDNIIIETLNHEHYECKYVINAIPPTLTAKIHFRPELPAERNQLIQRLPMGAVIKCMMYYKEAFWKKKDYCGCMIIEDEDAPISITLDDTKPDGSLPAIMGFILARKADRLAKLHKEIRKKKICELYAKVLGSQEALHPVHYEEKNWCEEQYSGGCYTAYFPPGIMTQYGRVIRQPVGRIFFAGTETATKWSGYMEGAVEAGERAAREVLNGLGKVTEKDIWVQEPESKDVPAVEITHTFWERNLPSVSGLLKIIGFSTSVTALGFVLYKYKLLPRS

[7] = molecular target: T5, Alpha-1A adrenergic receptor (Homo sapiens, UniProt P35348); format: functional, cell-based
T5 sequence (P35348 whole entry): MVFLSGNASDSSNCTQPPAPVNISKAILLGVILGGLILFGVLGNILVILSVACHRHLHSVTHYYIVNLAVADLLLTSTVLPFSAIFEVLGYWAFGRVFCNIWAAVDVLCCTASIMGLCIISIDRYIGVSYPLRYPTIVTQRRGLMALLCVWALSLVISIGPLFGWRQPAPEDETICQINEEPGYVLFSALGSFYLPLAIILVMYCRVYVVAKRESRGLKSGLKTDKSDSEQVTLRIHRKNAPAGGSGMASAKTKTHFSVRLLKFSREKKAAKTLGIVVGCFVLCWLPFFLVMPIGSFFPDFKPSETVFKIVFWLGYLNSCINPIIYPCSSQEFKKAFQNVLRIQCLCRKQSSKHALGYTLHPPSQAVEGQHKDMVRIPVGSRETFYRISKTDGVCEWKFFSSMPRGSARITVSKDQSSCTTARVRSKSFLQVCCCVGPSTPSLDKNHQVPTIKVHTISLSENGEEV

[8] = molecular target: T5, Alpha-1A adrenergic receptor; format: functional, cell-based; remark: listed apart in the source
Also: assay procedure not described here.

SMILES	AC50 [1] [µM]	AC50 [2] [µM]	AC50 [3] [µM]	AC50 [4] [µM]	AC50 [5] [µM]	AC50 [6] [µM]	AC50 [7] [µM]	AC50 [8] [µM]
CC(C)(C)C(=O)Oc1ccc(S(=O)(=O)Nc2ccccc2C(=O)NCC(=O)O)cc1	> 30	> 30	> 30	> 30	> 30	> 30		
CCC(C(=O)O)c1ccc(N2Cc3ccccc3C2=O)cc1 (stereo unspecified) [INDOBUFEN]	> 30	> 30	> 30	> 30	0.8	> 30	> 30	5.3
CC(C)C(=O)c1c(C(C)C)nn2ccccc12 [IBUDILAST]	> 30	> 30	> 30	> 30	> 30		> 30	> 30
Cc1ccc(-n2nccn2)c(C(=O)N2CCN(c3nc4cc(Cl)ccc4o3)CC[C@H]2C)c1 [SUVOREXANT]	> 30	> 30	> 30	> 30	> 30	> 30	> 30	> 30
Cn1c(=O)c2c(ncn2CC2OCCO2)n(C)c1=O [DOXOFYLLINE]	> 30	> 30	> 30	> 30	> 30	> 30	> 30	> 30
OC(CNCC(O)C1CCc2cc(F)ccc2O1)C1CCc2cc(F)ccc2O1 (stereo unspecified) [NEBIVOLOL]	> 30	4.6	> 30	24	> 30	> 30	> 30	3.1
CCC1(CC)C(=O)NCC(C)C1=O (stereo unspecified) [METHYPRYLON]	> 30	> 30	> 30	> 30	> 30	> 30	> 30	
CC(CC(c1ccccc1)c1ccccc1)NC(C)(C)C (stereo unspecified) [TERODILINE]	> 30	> 30	> 30	> 30	> 30	> 30	> 30	12
CCOC(=O)[N-]c1cn(N2CCOCC2)n[o+]1 [MOLSIDOMINE]	> 30	> 30	> 30	> 30	24		> 30	> 30
O=C(O)/C=C/c1ccc(Cn2ccnc2)cc1 [OZAGREL]	> 30	> 30	> 30	> 30	> 30	> 30		
CO/N=C(\C(=O)N[C@@H]1C(=O)N2C(C(=O)O)=C(CSc3nnnn3C)CS[C@H]12)c1csc(N)n1 [CEFMENOXIME]	> 30	> 30	> 30	> 30	> 30	> 30	> 30	> 30

— ChEMBL document CHEMBL5291721, “A preclinical secondary pharmacology resource illuminates target-adverse drug reaction associations of marketed drugs” (Nat Commun, 2023)
